PubChem BioAssay (NCI)
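Method: 48-hour compound exposure of cells in 96-well plates, five concentrations, linear interpolation of endpoints. TGI: total growth inhibition.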

What was measured:
Test in all cases: growth of human tumour cells (NCI), 48 h
[1] = system: MCF7 breast
[2] = system: TK-10 renal
[3] = system: HL-60(TB) leukemia
[4] = system: SW-620 colon
[5] = system: M14 melanoma
[6] = system: CAKI-1 renal
[7] = system: NCI-H522 lung
[8] = system: OVCAR-4 ovarian
[9] = system: A549 NSCLC
[10] = system: RPMI-8226 leukemia
[11] = system: CCRF-CEM leukemia
[12] = system: SK-OV-3 ovarian
[13] = system: EKVX NSCLC
[14] = system: U251 CNS
[15] = system: HOP-92 NSCLC
[16] = system: LOX IMVI melanoma
[17] = system: OVCAR-5 ovarian
[18] = system: ACHN renal
[19] = system: NCI-H23 lung
[20] = system: SK-MEL-28 melanoma

## Cc1ccc(NC(=O)C23CC4CC(CC(C4)C2)C3)c(C(=O)NNC(=O)c2ccc(Cl)cc2)c1
[1]
  TGI: 59.7 µM
[2]
  TGI: 41.5 µM
[3]
  TGI: 55.5 µM
[4]
  TGI: > 100 µM
[5]
  TGI: > 100 µM
[6]
  TGI: 73.8 µM
[7]
  TGI: 30.4 µM
[8]
  TGI: 65.8 µM
[9]
  TGI: 46 µM
[10]
  TGI: 41.5 µM
[11]
  TGI: 55.2 µM
[12]
  TGI: 39 µM
[13]
  TGI: 68 µM
[14]
  TGI: 37.1 µM
[15]
  TGI: 33.5 µM
[16]
  TGI: 35.3 µM
[17]
  TGI: 61.3 µM
[18]
  TGI: 37.8 µM
[19]
  TGI: 38.8 µM

## CC(C)(Cl)C(Br)CCC(=CCBr)CBr (mixture of isomers)
[1]
  TGI: 8.42 µM
[2]
  TGI: 12.5 µM
[3]
  TGI: 2.42 µM
[4]
  TGI: 5.53 µM
[5]
  TGI: 4.25 µM
[7]
  TGI: 3.19 µM
[8]
  TGI: 5.06 µM
[9]
  TGI: 29.9 µM
[10]
  TGI: 3.22 µM
[11]
  TGI: 3.49 µM
[20]
  TGI: 10.8 µM
[12]
  TGI: 29 µM
[13]
  TGI: 62 µM
[14]
  TGI: 4.09 µM
[15]
  TGI: 5.1 µM
[17]
  TGI: 26.4 µM
[18]
  TGI: 15.6 µM
[19]
  TGI: 9.07 µM

## CCCc1c(O)c2ccccc2[nH]c1=O
[1]
  TGI: > 100 µM
[2]
  TGI: > 100 µM
[3]
  TGI: > 100 µM
[4]
  TGI: > 100 µM
[6]
  TGI: > 100 µM
[7]
  TGI: > 100 µM
[8]
  TGI: > 100 µM
[9]
  TGI: > 100 µM
[10]
  TGI: > 100 µM
[11]
  TGI: > 100 µM
[20]
  TGI: > 100 µM
[13]
  TGI: > 100 µM
[14]
  TGI: > 100 µM
[15]
  TGI: > 100 µM
[16]
  TGI: > 100 µM
[17]
  TGI: > 100 µM
[18]
  TGI: > 100 µM
[19]
  TGI: > 100 µM

## NC(=S)Nc1c(S(N)(=O)=O)cc(S(N)(=O)=O)c(Cl)c1Cl
[1]
  TGI: > 100 µM
[2]
  TGI: > 100 µM
[3]
  TGI: > 100 µM
[4]
  TGI: > 100 µM
[5]
  TGI: > 100 µM
[6]
  TGI: > 100 µM
[7]
  TGI: > 100 µM
[8]
  TGI: > 100 µM
[9]
  TGI: > 100 µM
[10]
  TGI: > 100 µM
[11]
  TGI: > 100 µM
[20]
  TGI: > 100 µM
[12]
  TGI: > 100 µM
[13]
  TGI: > 100 µM
[14]
  TGI: > 100 µM
[15]
  TGI: > 100 µM
[16]
  TGI: > 100 µM
[17]
  TGI: > 100 µM
[19]
  TGI: > 100 µM

## O=c1cc(CN2CCCCC2)[nH]c2c1ccc1nc(CN3CCCCC3)cc(=O)n12
[1]
  TGI: > 100 µM
[2]
  TGI: > 100 µM
[3]
  TGI: > 100 µM
[4]
  TGI: > 100 µM
[5]
  TGI: > 100 µM
[6]
  TGI: > 100 µM
[8]
  TGI: > 100 µM
[9]
  TGI: > 100 µM
[10]
  TGI: > 100 µM
[11]
  TGI: > 100 µM
[20]
  TGI: > 100 µM
[12]
  TGI: > 100 µM
[13]
  TGI: > 100 µM
[14]
  TGI: > 100 µM
[15]
  TGI: > 100 µM
[16]
  TGI: > 100 µM
[17]
  TGI: > 100 µM
[18]
  TGI: > 100 µM
[19]
  TGI: > 100 µM

## Cc1ccc(OC2CC(n3cnc4c(=O)[nH]c(Br)nc43)OC2Oc2ccc(C)cc2)cc1 (stereo not given)
[1]
  TGI: > 100 µM
[2]
  TGI: 49.8 µM
[3]
  TGI: 59.2 µM
[4]
  TGI: > 100 µM
[5]
  TGI: 62.1 µM
[6]
  TGI: 75.7 µM
[7]
  TGI: 59.8 µM
[8]
  TGI: > 100 µM
[9]
  TGI: 69.7 µM
[10]
  TGI: 87.9 µM
[11]
  TGI: 53.7 µM
[12]
  TGI: > 100 µM
[13]
  TGI: 62.8 µM
[14]
  TGI: 79.9 µM
[15]
  TGI: 45.9 µM
[16]
  TGI: 72 µM
[17]
  TGI: 48.2 µM
[18]
  TGI: 38 µM
[19]
  TGI: 70.3 µM

## O=C(Nn1c(-c2ccccc2)nc2ccccc2c1=O)c1ccc([N+](=O)[O-])cc1
[1]
  TGI: > 100 µM
[2]
  TGI: > 100 µM
[3]
  TGI: > 100 µM
[4]
  TGI: > 100 µM
[5]
  TGI: > 100 µM
[7]
  TGI: > 100 µM
[8]
  TGI: > 100 µM
[9]
  TGI: > 100 µM
[10]
  TGI: > 100 µM
[11]
  TGI: > 100 µM
[20]
  TGI: > 100 µM
[12]
  TGI: > 100 µM
[13]
  TGI: > 100 µM
[14]
  TGI: > 100 µM
[15]
  TGI: > 100 µM
[16]
  TGI: > 100 µM
[17]
  TGI: > 100 µM
[18]
  TGI: > 100 µM
[19]
  TGI: > 100 µM

## CNc1cccc(-c2cc(=O)c3cc4c(cc3[nH]2)OCO4)c1
[1]
  TGI: > 100 µM
[2]
  TGI: 77.5 µM
[3]
  TGI: 2.89 µM
[4]
  TGI: > 100 µM
[5]
  TGI: > 100 µM
[6]
  TGI: > 100 µM
[7]
  TGI: 0.443 µM
[8]
  TGI: > 100 µM
[9]
  TGI: > 91.8 µM
[11]
  TGI: 11 µM
[20]
  TGI: > 100 µM
[12]
  TGI: 1.07 µM
[14]
  TGI: > 49.5 µM
[15]
  TGI: > 100 µM
[16]
  TGI: > 72.2 µM
[17]
  TGI: 97.8 µM
[18]
  TGI: > 100 µM
[19]
  TGI: 7.28 µM

## CCc1nc2c(n1CC)C(=O)c1ccccc1C2=O
[1]
  TGI: > 100 µM
[2]
  TGI: 93.1 µM
[3]
  TGI: > 100 µM
[4]
  TGI: > 100 µM
[5]
  TGI: 54.9 µM
[7]
  TGI: 96 µM
[8]
  TGI: > 100 µM
[9]
  TGI: > 100 µM
[10]
  TGI: > 100 µM
[11]
  TGI: > 100 µM
[20]
  TGI: > 100 µM
[13]
  TGI: > 100 µM
[14]
  TGI: > 100 µM
[15]
  TGI: > 100 µM
[17]
  TGI: > 100 µM
[18]
  TGI: > 100 µM
[19]
  TGI: > 100 µM

## CN1CCN(Cn2nc(-c3ccccc3)n(/N=C/c3ccc(-c4ccc(Cl)cc4Cl)o3)c2=S)CC1
[1]
  TGI: 38.6 µM
[2]
  TGI: 29.7 µM
[3]
  TGI: 80.3 µM
[4]
  TGI: 32.9 µM
[5]
  TGI: 39.1 µM
[6]
  TGI: 21.9 µM
[7]
  TGI: > 100 µM
[8]
  TGI: 54.8 µM
[10]
  TGI: 75.6 µM
[11]
  TGI: 23.2 µM
[20]
  TGI: 77.8 µM
[12]
  TGI: 27.3 µM
[13]
  TGI: > 100 µM
[14]
  TGI: 17.5 µM
[15]
  TGI: 25.1 µM
[16]
  TGI: 46.7 µM
[17]
  TGI: 48 µM
[19]
  TGI: 40.7 µM

## O=c1[nH]ncc2[nH]c(-c3ccccc3)cc12
[1]
  TGI: > 100 µM
[2]
  TGI: > 100 µM
[3]
  TGI: > 100 µM
[4]
  TGI: > 100 µM
[5]
  TGI: > 100 µM
[6]
  TGI: > 100 µM
[8]
  TGI: > 100 µM
[9]
  TGI: > 100 µM
[10]
  TGI: > 100 µM
[11]
  TGI: > 100 µM
[12]
  TGI: > 100 µM
[13]
  TGI: > 100 µM
[14]
  TGI: > 100 µM
[15]
  TGI: > 100 µM
[16]
  TGI: > 100 µM
[17]
  TGI: > 100 µM
[18]
  TGI: > 100 µM
[19]
  TGI: > 100 µM

## COc1cc(S(=O)(=O)Nc2ccc(-c3csc(/N=C\c4ccccc4O)n3)cc2)ccc1Cl
[1]
  TGI: 59.7 µM
[3]
  TGI: 98.6 µM
[4]
  TGI: > 100 µM
[5]
  TGI: > 100 µM
[6]
  TGI: > 100 µM
[7]
  TGI: > 100 µM
[8]
  TGI: > 100 µM
[9]
  TGI: > 100 µM
[10]
  TGI: > 100 µM
[11]
  TGI: > 100 µM
[20]
  TGI: > 100 µM
[12]
  TGI: > 100 µM
[13]
  TGI: > 100 µM
[15]
  TGI: > 100 µM
[16]
  TGI: > 100 µM
[17]
  TGI: > 100 µM
[18]
  TGI: > 100 µM
[19]
  TGI: > 100 µM
